From patent US20220323406A1, “METHODS AND COMPOSITIONS FOR DIFFERENTIATING STEM CELLS” (Massachusetts Institute of Technology, priority 2019, published 2022)
Counter-ions that a name gives are not always drawn.

Legend:
ENR+CD organoids = test: Primary screen: ATP (CellTiter-Glo 3D, CTG) cell number/viability, 2.5-D 384-well ENR+CD organoids; conditions: primary screen; for Z.CTG: standard z score; for Dose.FC.CTG: FC vs plate median;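 for all read-outs here: compounds given at plating and again on day 3 over a 6-day differentiation from ENR+CV stem-cell-enriched precursors, ATP measured on day 6, plate median as control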
[1] = test system: ENR+CD organoids (ISC to Paneth cell differentiation); test: Primary screen: CCh-stimulated lysozyme secretion LYZ.S, 2.5-D 384-well ENR+CD organoid differentiation; type: cell-based, mouse; conditions: primary screen, FC vs plate median
Source text: (§1) High-throughput screening.

[2] = test system: ENR+CD organoids (ISC to Paneth cell differentiation); test: Primary screen: basal (non-stimulated) lysozyme secretion LYZ.NS, 2.5-D 384-well ENR+CD organoid differentiation; type: cell-based, mouse; conditions: primary screen; for Z.LYZ.NS: standard z score; for Dose.FC.LYZ.NS: FC vs plate median
Source text: as §1

Row | Structure (SMILES) | Z.CTG (ENR+CD organoids; dose 0.08 uM) | Z.CTG (ENR+CD organoids; dose 0.40 uM) | Z.CTG (ENR+CD organoids; dose 2.00 uM) | Z.CTG (ENR+CD organoids; dose 10.00 uM) | Dose.FC.CTG (ENR+CD organoids; dose 0.08 uM) [log2 fold change] | Dose.FC.CTG (ENR+CD organoids; dose 0.40 uM) [log2 fold change] | Dose.FC.CTG (ENR+CD organoids; dose 2.00 uM) [log2 fold change] | Dose.FC.CTG (ENR+CD organoids; dose 10.00 uM) [log2 fold change] | Dose.FC.LYZ.S ([1]; dose 0.08 uM) [log2 fold change] | Dose.FC.LYZ.S ([1]; dose 0.40 uM) [log2 fold change] | Dose.FC.LYZ.S ([1]; dose 2.00 uM) [log2 fold change] | Dose.FC.LYZ.S ([1]; dose 10.00 uM) [log2 fold change] | Z.LYZ.NS ([2]; dose 0.08 uM) | Z.LYZ.NS ([2]; dose 0.40 uM) | Z.LYZ.NS ([2]; dose 2.00 uM) | Z.LYZ.NS ([2]; dose 10.00 uM) | Dose.FC.LYZ.NS ([2]; dose 0.08 uM) [log2 fold change] | Dose.FC.LYZ.NS ([2]; dose 0.40 uM) [log2 fold change] | Dose.FC.LYZ.NS ([2]; dose 2.00 uM) [log2 fold change] | Dose.FC.LYZ.NS ([2]; dose 10.00 uM) [log2 fold change]
1 | CCN(CC)CCCC(C)Nc1nc(C)cc(Nc2ccc3nc(C)cc(N)c3c2)n1 (stereo not shown) [NSC 23766] | 0.103 | 0.406 | 0.279 | 0.774 | 0.043 | 0.170 | 0.117 | 0.324 | 0.080 | 0.090 | 0.031 | 0.030 | 0.701 | 0.380 | 0.506 | 0.080 | 0.081 | 0.044 | 0.058 | 0.009
2 | C/C(=N\NC(=S)N1CCC1)c1ccccn1 [NSC 319726] | 0.316 | −0.441 | −1.068 | −4.555 | 0.132 | −0.185 | −0.447 | −1.907 | 0.060 | −0.035 | −0.248 | −0.327 | 0.982 | −0.780 | −1.323 | −1.992 | 0.113 | −0.090 | −0.152 | −0.229
3 | CCCC(C)NC(=O)c1ccc(Cl)c(Cl)c1 (stereo not shown) [NSC 405020] | −0.140 | −0.170 | −0.141 | −0.138 | −0.059 | −0.071 | −0.059 | −0.058 | 0.014 | 0.093 | 0.002 | −0.061 | 0.071 | −0.246 | 0.160 | −0.570 | 0.008 | −0.028 | 0.018 | −0.065
4 | O=c1cc(N2CCOCC2)oc2c1ccc1ccccc12 [NU7026] | 0.230 | 0.248 | 0.255 | −0.284 | 0.096 | 0.104 | 0.107 | −0.119 | 0.021 | 0.034 | −0.056 | −0.198 | 0.198 | 0.198 | −0.507 | −1.380 | 0.023 | 0.023 | −0.058 | −0.158
5 | Nc1ncnc2c1c(-c1cccc(OCc3ccccc3)c1)cn2C1CC(CN2CCCC2)C1 (stereo not shown) [NVP-ADW742] | 1.622 | 1.583 | 0.614 | −1.112 | 0.679 | 0.663 | 0.257 | −0.465 | 0.245 | 0.265 | −0.166 | −0.210 | 1.239 | 1.499 | −0.823 | −1.172 | 0.142 | 0.172 | −0.095 | −0.135
6 | COc1ccccc1N1CCN(CC(O)COc2cccc3ccccc23)CC1 (stereo not shown) [Naftopidil] |  |  |  |  | −0.039 | −0.161 | −0.179 | −0.132 | 0.015 | −0.128 | −0.097 | −0.079 | −0.325 | −0.713 | −0.171 | −0.638 | −0.037 | −0.082 | −0.020 | −0.073
7 | O=C1CC[C@@]2(O)[C@H]3Cc4ccc(O)c5c4[C@@]2(CCN3CC2CC2)[C@H]1O5 [Naltrexone HCl] |  |  |  |  | 0.089 | 0.070 | 0.004 |  | 0.002 | 0.025 | 0.025 | 0.045 | −0.067 | −0.043 | 0.166 | 0.302 | −0.008 | −0.005 | 0.019 | 0.035
8 | COc1ccc2cc([C@H](C)C(=O)O)ccc2c1 [Naproxen] |  |  |  |  | −0.098 | −0.068 | −0.588 | −1.282 | 0.067 | 0.057 | −0.215 | −0.215 | 1.226 | 0.930 | −0.698 | −1.064 | 0.141 | 0.107 | −0.080 | −0.122
9 | OC(CNCC(O)C1CCc2cc(F)ccc2O1)C1CCc2cc(F)ccc2O1 (stereo not shown) [Nebivolol] |  |  |  |  | 0.388 | 0.220 | 0.312 | 0.209 | 0.194 | 0.282 | 0.069 | 0.105 | 1.525 | 2.776 | 0.960 | 0.836 | 0.175 | 0.319 | 0.110 | 0.096
